Measured values taken from US10851102B2, “Imidazole and triazole containing bicyclic compounds as JAK inhibitors” (THERAVANCE BIOPHARMA R&D IP, LLC, priority 2019, dated 2020).

How the values were obtained:
JAK3 = JAK3 (Homo sapiens (Human), UniProt P52333); assay: Biochemical JAK and Tyk2 kinase assays (LanthaScreen): JAK3; conditions: for Ki / JAK 3 (pKi): 1 h pre-incubation, ATP at Km, pIC50 converted to pKi by Cheng-Prusoff; for Ki: read-out: JAK 3 (pKi) (converted); for JAK3 (pKi)-JAK1 (pKi): difference of pKi values, selectivity JAK3 over JAK1
JAK3, sequence (P52333 whole entry): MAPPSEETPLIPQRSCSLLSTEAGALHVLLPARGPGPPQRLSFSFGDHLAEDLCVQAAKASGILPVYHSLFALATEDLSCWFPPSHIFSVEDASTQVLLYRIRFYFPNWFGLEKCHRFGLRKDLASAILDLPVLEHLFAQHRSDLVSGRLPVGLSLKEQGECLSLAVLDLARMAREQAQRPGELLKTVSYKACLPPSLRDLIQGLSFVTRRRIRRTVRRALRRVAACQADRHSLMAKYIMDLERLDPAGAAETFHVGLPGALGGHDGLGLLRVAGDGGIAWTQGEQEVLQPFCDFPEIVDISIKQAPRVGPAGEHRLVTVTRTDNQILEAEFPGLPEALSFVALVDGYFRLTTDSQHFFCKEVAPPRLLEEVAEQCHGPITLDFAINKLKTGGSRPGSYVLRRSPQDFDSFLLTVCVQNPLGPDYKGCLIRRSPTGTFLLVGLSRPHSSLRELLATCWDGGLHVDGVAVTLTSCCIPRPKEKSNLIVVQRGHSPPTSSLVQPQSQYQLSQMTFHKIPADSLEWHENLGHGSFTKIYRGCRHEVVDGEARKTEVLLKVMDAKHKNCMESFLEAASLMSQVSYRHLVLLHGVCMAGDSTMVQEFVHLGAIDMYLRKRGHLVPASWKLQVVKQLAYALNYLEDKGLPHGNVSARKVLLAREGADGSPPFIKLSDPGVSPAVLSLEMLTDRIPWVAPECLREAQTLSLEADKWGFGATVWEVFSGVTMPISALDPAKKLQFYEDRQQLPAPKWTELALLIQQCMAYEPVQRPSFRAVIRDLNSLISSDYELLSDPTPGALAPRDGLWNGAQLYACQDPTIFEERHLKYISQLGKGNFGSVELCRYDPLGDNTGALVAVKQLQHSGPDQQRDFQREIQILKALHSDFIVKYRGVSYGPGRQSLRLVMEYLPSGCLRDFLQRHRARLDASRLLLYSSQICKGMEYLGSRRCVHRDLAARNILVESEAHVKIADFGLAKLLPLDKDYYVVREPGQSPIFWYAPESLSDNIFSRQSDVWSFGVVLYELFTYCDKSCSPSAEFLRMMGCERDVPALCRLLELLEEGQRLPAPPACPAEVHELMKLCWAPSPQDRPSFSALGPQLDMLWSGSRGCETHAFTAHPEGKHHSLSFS
Description: (§1) Assay 1: Biochemical JAK and Tyk2 Kinase Assays
(§2) A panel of four LanthaScreen JAK biochemical assays (JAK1, 2, 3 and Tyk2) were carried in a common kinase reaction buffer (50 mM HEPES, pH 7.5, 0.01% Brij-35, 10 mM MgCl2, and 1 mM EGTA). Recombinant GST-tagged JAK enzymes and a GFP-tagged STAT1 peptide substrate were obtained from Life Technologies.
(§3) Serially or discretely diluted compounds were pre-incubated with each of the four JAK enzymes and the substrate in white 384-well microplates (Corning) at ambient temperature for 1 h. ATP was subsequently added to initiate the kinase reactions in 10 μL total volume, with 1% DMSO. […] Kinase reactions were allowed to proceed for 1 hour at ambient temperature before a 10 μL preparation of EDTA (10 mM final concentration) and Tb-anti-pSTAT1 (pTyr701) antibody (Life Technologies, 2 nM final concentration) in TR-FRET dilution buffer (Life Technologies) was added. The plates were allowed to incubate at ambient temperature for 1 h before being read on the EnVision reader (Perkin Elmer). Emission ratio signals (520 nm/495 nm) were recorded and utilized to calculate the percent inhibition values based on DMSO and background controls.
(§4) For dose-response analysis, percent inhibition data were plotted vs. compound concentrations, and IC50 values were determined from a 4-parameter robust fit model with the Prism software (GraphPad Software). Results were expressed as pIC50 (negative logarithm of IC50) and subsequently converted to pKi (negative logarithm of dissociation constant, Ki) using the Cheng-Prusoff equation.

Tyk2 = Tyk2 (Homo sapiens (Human), UniProt P29597); assay: Biochemical JAK and Tyk2 kinase assays (LanthaScreen): Tyk2; conditions: 1 h pre-incubation, ATP at Km; pIC50 converted to pKi by Cheng-Prusoff
Tyk2, sequence (P29597 whole entry): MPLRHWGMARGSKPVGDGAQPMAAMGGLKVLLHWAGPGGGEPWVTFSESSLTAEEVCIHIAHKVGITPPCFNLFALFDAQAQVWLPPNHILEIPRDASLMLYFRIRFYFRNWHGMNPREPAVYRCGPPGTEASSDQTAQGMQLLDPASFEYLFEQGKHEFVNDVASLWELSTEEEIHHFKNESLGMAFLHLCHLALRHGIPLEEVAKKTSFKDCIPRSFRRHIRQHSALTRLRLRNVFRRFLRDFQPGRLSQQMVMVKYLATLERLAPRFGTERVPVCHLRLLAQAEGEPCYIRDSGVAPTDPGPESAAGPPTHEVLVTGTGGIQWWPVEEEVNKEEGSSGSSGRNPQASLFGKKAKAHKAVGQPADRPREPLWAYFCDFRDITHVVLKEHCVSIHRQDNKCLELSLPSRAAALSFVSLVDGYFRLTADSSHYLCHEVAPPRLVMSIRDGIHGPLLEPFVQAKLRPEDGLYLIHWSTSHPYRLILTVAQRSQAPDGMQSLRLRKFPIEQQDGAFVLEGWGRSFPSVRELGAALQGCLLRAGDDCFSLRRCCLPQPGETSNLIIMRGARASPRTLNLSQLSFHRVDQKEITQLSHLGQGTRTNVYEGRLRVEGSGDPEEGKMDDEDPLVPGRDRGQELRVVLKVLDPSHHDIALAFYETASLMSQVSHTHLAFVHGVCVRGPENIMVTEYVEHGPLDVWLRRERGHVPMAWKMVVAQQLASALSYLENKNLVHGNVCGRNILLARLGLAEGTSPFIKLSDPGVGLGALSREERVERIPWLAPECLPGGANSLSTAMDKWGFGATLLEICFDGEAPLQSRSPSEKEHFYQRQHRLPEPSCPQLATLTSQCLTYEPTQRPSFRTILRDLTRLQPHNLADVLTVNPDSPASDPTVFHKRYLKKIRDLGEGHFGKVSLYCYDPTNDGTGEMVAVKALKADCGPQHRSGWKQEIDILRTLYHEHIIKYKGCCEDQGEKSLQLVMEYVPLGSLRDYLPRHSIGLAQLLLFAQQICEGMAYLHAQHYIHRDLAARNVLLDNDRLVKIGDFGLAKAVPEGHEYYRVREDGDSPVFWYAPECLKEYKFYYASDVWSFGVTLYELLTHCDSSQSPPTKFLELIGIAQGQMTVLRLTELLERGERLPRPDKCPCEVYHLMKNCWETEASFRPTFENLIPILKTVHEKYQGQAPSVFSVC
Description: as §1, §2, §3, §4

JAK1 = JAK1 (Homo sapiens (Human), UniProt P23458); assay: Biochemical JAK and Tyk2 kinase assays (LanthaScreen): JAK1; conditions: 1 h pre-incubation, ATP at Km; pIC50 converted to pKi by Cheng-Prusoff
JAK1, sequence (P23458 whole entry): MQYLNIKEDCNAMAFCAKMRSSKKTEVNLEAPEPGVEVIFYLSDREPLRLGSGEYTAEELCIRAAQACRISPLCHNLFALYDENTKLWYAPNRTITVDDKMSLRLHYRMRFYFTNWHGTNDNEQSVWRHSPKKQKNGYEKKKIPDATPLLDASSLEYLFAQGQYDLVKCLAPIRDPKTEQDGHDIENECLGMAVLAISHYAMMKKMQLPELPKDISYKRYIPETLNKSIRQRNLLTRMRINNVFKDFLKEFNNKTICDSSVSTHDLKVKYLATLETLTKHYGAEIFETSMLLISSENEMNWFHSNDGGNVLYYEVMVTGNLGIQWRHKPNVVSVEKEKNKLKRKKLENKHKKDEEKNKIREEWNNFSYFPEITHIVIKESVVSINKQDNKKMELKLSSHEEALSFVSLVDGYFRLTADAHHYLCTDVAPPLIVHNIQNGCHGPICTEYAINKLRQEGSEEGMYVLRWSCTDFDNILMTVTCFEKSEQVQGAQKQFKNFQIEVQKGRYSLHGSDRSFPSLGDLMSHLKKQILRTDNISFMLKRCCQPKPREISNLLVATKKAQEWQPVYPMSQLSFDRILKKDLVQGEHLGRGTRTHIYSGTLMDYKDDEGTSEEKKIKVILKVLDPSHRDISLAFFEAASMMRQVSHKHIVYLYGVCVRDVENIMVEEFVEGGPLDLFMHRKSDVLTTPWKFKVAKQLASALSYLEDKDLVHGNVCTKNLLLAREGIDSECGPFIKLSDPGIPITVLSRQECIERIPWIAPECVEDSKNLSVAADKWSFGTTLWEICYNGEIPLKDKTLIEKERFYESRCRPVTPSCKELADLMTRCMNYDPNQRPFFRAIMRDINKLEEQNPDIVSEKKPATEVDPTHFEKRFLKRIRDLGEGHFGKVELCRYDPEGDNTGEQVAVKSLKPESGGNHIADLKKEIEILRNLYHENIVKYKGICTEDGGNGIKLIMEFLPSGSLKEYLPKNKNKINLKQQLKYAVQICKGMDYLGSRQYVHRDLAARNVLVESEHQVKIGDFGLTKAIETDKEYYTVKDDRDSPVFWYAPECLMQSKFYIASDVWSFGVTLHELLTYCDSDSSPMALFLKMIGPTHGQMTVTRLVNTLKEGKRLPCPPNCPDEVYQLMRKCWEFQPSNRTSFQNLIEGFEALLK
Description: as §1, §2, §3, §4

Caco-2 cell monolayers = assay: Caco-2 permeation assay; format: in vitro ADME, human; conditions: 5 μM, A to B, + Verapamil 25 μM, 120 minutes
Excerpt: Assay 5: Caco-2 Permeation Assay

[1] = system: IL-2 stimulated pSTAT5 in Tall-1 T cells (JAK3); assay: Cellular JAK3 potency assay: inhibition of IL-2 stimulated pSTAT5 in Tall-1 T cells; format: cell-based; conditions: IL-2 300 ng/ml, pSTAT5 AlphaLisa, Tall-1 human T cell line; read-out: Tall-1 (pIC50) (converted)
Description: Assay 2: Cellular JAK3 Potency Assay: Inhibition of IL-2 Stimulated pSTAT5 in Tall-1 T Cells
The potency of test compounds for inhibition of interleukin-2 (IL-2) stimulated STATS phosphorylation was measured in the Tall-1 human T cell line (DSMZ) using AlphaLisa. Because IL-2 signals through JAK3, this assay provides a measure of JAK3 cellular potency.
Phosphorylated STATS was measured via the AlphaLISA SureFire Ultra pSTAT5 (Tyr694/699) kit (PerkinElmer).
Human T cells from the Tall-1 cell line were cultured in a 37° C., 5% CO2 humidified incubator in RPMI (Life Technologies) supplemented with 15% Heat Inactivated Fetal Bovine Serum (FBS, Life Technologies), 2 mM Glutamax (Life Technologies), 25 mM HEPES (Life Technologies) and 1× Pen/Strep (Life Technologies). Compounds were serially diluted in DMSO and dispensed acoustically to empty wells. Assay media (phenol red-free DMEM (Life Technologies) supplemented with 10% FBS (ATCC)) was dispensed (4 μL/well) and plates shaken at 900 rpm for 10 mins. Cells were seeded at 45,000 cells/well in assay media (4 μL/well), and incubated at 37° C., 5% CO2 for 1 hour, followed by the addition of IL-2 (R&D Systems; final concentration 300 ng/ml) in pre-warmed assay media ([…]) for 30 minutes. After cytokine stimulation, cells were lysed with 6 ul of 3× AlphaLisa Lysis Buffer (PerkinElmer) containing 1× PhosStop and Complete tablets (Roche). The lysate was shaken at 900 rpm for 10 minutes at room temperature (RT). Phosphorylated STATS was measured via the pSTAT5 AlphaLisa kit (PerkinElmer). Freshly prepared acceptor bead mixture was dispensed onto lysate (5 μL) under green filtered <100 lux light. Plates were shaken at 900 rpm for 2 mins, briefly spun down, and incubated for 2 hrs at RT in the dark. Donor beads were dispensed (5 μL) under green filtered <100 lux light. Plates were shaken at 900 rpm for 2 minutes, briefly spun down, and incubated overnight at RT in the dark. Luminescence was measured with excitation at 689 nm and emission at 570 nm using an EnVision plate reader (PerkinElmer) under green filtered <100 lux light.
To determine the inhibitory potency of test compounds in response to IL-2, the average emission intensity of beads bound to pSTAT5 was measured in a human T cell line. IC50 values were determined from analysis of the inhibition curves of signal intensity versus compound concentration. Data are expressed as pIC50 (negative decadic logarithm IC50) values (mean±standard deviation).

JAK2 = JAK2 (Homo sapiens (Human), UniProt O60674); assay: Biochemical JAK and Tyk2 kinase assays (LanthaScreen): JAK2; conditions: 1 h pre-incubation, ATP at Km; pIC50 converted to pKi by Cheng-Prusoff
JAK2, sequence (O60674 whole entry): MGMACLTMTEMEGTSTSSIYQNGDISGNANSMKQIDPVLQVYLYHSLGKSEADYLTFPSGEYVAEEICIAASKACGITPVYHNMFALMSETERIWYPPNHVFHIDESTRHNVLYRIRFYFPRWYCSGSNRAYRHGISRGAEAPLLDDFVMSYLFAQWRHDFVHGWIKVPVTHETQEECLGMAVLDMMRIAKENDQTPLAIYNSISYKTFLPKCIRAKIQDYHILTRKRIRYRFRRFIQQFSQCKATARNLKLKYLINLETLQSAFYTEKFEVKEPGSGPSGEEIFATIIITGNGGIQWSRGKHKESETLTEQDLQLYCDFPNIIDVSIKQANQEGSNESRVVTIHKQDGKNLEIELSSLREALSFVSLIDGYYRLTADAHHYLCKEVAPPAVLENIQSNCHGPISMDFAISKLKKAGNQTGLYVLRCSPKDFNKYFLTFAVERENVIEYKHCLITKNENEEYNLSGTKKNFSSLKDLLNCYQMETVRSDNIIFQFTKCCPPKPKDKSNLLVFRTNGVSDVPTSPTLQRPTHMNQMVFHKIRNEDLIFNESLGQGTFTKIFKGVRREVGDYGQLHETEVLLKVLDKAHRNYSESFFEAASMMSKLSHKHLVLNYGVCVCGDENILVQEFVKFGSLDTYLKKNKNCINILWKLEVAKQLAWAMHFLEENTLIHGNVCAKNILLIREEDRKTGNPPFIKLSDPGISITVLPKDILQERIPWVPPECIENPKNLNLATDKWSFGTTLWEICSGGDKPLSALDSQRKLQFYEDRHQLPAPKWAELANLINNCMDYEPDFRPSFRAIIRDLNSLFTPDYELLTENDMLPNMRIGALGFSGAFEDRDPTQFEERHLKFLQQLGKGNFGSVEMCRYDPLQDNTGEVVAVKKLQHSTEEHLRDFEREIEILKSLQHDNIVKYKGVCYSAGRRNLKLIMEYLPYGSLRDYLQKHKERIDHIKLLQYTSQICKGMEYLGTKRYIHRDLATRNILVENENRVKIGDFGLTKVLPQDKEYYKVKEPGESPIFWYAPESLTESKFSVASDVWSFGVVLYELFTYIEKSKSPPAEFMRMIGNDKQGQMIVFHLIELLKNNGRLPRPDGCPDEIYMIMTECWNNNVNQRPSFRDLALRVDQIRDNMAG
Description: as §1, §2, §3, §4

| Compound | Ki (JAK3) [µM] | JAK3 (pKi)-JAK1 (pKi) (JAK3) | Tyk 2 (pKi) (Tyk2) | JAK 1 (pKi) (JAK1) | Caco Kp 10^−6 cm/sec (Caco-2 cell monolayers) | IC50 [1] [µM] | JAK 2 (pKi) (JAK2) | JAK 3 (pKi) (JAK3) |
| --- | --- | --- | --- | --- | --- | --- | --- | --- |
| C=CC(=O)N1CCC(COc2cc(-c3ccc(O)cc3)cn3cncc23)CC1 [Example 2, 1-(4-(((6-(4-hydroxyphenyl)imidazo[1,5-a]pyridin-8-yl)oxy)methyl)piperidin-1-yl)prop-2-en-1-one] | 0.0001 to 0.001 | A (A represents a value of 3 or above) | E (E represents a pKi value of 7 or below (Ki of 100 nM or above)) | E (E represents a pKi value of 7 or below (Ki of 100 nM or above)) | C (C represents a value between 10×10^−6 and 25×10^−6 cm/sec) | 0.2 to 1 | E (E represents a pKi value of 7 or below (Ki of 100 nM or above)) | – |
| C=CC(=O)N1CC(COc2cc(-c3ccc(O)cc3C)cn3cncc23)C1 [Example 44] | 0.0001 to 0.001 | A (A represents a value of 3 or above) | E (E represents a pKi value of 7 or below (Ki of 100 nM or above)) | E (E represents a pKi value of 7 or below (Ki of 100 nM or above)) | – | 0.0316 to 0.2 | E (E represents a pKi value of 7 or below (Ki of 100 nM or above)) | – |
| C=CC(=O)N1CC[C@@H](Oc2cc(-c3ccc(O)cc3)cn3cncc23)C[C@@H]1C [Example 39] | – | A (A represents a value of 3 or above) | E (E represents a pKi value of 7 or below (Ki of 100 nM or above)) | E (E represents a pKi value of 7 or below (Ki of 100 nM or above)) | – | 0.0316 to 0.2 | E (E represents a pKi value of 7 or below (Ki of 100 nM or above)) | A (A represents a pKi value≥10 (Ki≤0.1 nM)) |
| C=CC(=O)N1CC[C@@H](Oc2cc(-c3ccc(O)cc3)cn3cncc23)[C@@H](C)C1 [Example 41] | – | A (A represents a value of 3 or above) | E (E represents a pKi value of 7 or below (Ki of 100 nM or above)) | E (E represents a pKi value of 7 or below (Ki of 100 nM or above)) | – | 0.0316 to 0.2 | E (E represents a pKi value of 7 or below (Ki of 100 nM or above)) | A (A represents a pKi value≥10 (Ki≤0.1 nM)) |
| CN(C)C/C=C/C(=O)N1CC(COc2cc(-c3ccc(O)c(Cl)c3)cn3cncc23)C1 [Example 23] | 0.0001 to 0.001 | A (A represents a value of 3 or above) | E (E represents a pKi value of 7 or below (Ki of 100 nM or above)) | E (E represents a pKi value of 7 or below (Ki of 100 nM or above)) | – | 0.2 to 1 | E (E represents a pKi value of 7 or below (Ki of 100 nM or above)) | – |
| C=CC(=O)N1CC[C@H](COc2cc(-c3ccc(O)cc3)cn3cncc23)C1 [Example 26] | 0.0001 to 0.001 | A (A represents a value of 3 or above) | E (E represents a pKi value of 7 or below (Ki of 100 nM or above)) | E (E represents a pKi value of 7 or below (Ki of 100 nM or above)) | – | 0.2 to 1 | E (E represents a pKi value of 7 or below (Ki of 100 nM or above)) | – |
| C=CC(=O)N1CC2(CC(Oc3cc(-c4ccc(O)cc4)cn4cncc34)C2)C1 [Example 37] | 0.0001 to 0.001 | A (A represents a value of 3 or above) | E (E represents a pKi value of 7 or below (Ki of 100 nM or above)) | E (E represents a pKi value of 7 or below (Ki of 100 nM or above)) | – | 0.2 to 1 | E (E represents a pKi value of 7 or below (Ki of 100 nM or above)) | – |
| C=CC(=O)N1CCC(Nc2cc(-c3ccc(O)cc3)cn3cncc23)CC1 [Example 4, 1-(4-((6-(4-hydroxyphenyl)imidazo[1,5-a]pyridin-8-yl)amino)piperidin-1-yl)prop-2-en-1-one] | 0.001 to 0.01 | B (B represents a value of 2.3 to 3) | E (E represents a pKi value of 7 or below (Ki of 100 nM or above)) | E (E represents a pKi value of 7 or below (Ki of 100 nM or above)) | – | – | E (E represents a pKi value of 7 or below (Ki of 100 nM or above)) | – |
| C=CC(=O)N1CCC[C@H](Oc2cc(-c3ccc(O)cc3)cn3cncc23)C1 [Example 27] | 0.0001 to 0.001 | A (A represents a value of 3 or above) | E (E represents a pKi value of 7 or below (Ki of 100 nM or above)) | E (E represents a pKi value of 7 or below (Ki of 100 nM or above)) | – | 0.2 to 1 | E (E represents a pKi value of 7 or below (Ki of 100 nM or above)) | – |
| C=CC(=O)N1CC[C@H](Oc2cc(-c3ccc(O)cc3)cn3cncc23)C1 [Example 1, (S)-1-(3-((6-(4-hydroxyphenyl)imidazo[1,5-a]pyridin-8-yl)oxy)pyrrolidin-1-yl)prop-2-en-1-one] | 0.0001 to 0.001 | A (A represents a value of 3 or above) | E (E represents a pKi value of 7 or below (Ki of 100 nM or above)) | E (E represents a pKi value of 7 or below (Ki of 100 nM or above)) | – | 0.2 to 1 | E (E represents a pKi value of 7 or below (Ki of 100 nM or above)) | – |
| C=CC(=O)N1CC(COc2cc(-c3cc(Cl)c(O)c(Cl)c3)cn3cncc23)C1 [Example 33] | – | A (A represents a value of 3 or above) | – | E (E represents a pKi value of 7 or below (Ki of 100 nM or above)) | A (A represents a value below 5×10^−6 cm/sec) | 0.0316 to 0.2 | – | A (A represents a pKi value≥10 (Ki≤0.1 nM)) |
| C=CC(=O)N1CC(COc2cc(-c3ccc(O)cc3CC)cn3cncc23)C1 [Example 21] | 0.0001 to 0.001 | A (A represents a value of 3 or above) | E (E represents a pKi value of 7 or below (Ki of 100 nM or above)) | E (E represents a pKi value of 7 or below (Ki of 100 nM or above)) | B (B represents a value between 5×10^−6 and 10×10^−6 cm/sec) | 0.0316 to 0.2 | E (E represents a pKi value of 7 or below (Ki of 100 nM or above)) | – |
| C=CC(=O)N1CC2(CCC2Oc2cc(-c3ccc(O)cc3)cn3cncc23)C1 (stereo not drawn) [Example 3, 1-(5-((6-(4-hydroxyphenyl)imidazo[1,5-a]pyridin-8-yl)oxy)-2-azaspiro[3.3]heptan-2-yl)prop-2-en-1-one] | 0.0001 to 0.001 | A (A represents a value of 3 or above) | E (E represents a pKi value of 7 or below (Ki of 100 nM or above)) | E (E represents a pKi value of 7 or below (Ki of 100 nM or above)) | – | 0.0316 to 0.2 | E (E represents a pKi value of 7 or below (Ki of 100 nM or above)) | – |
